Data taken from PMC9571937, “Synthesis and Structure–Activity Relationship Studies of Pyrido [1,2-e]Purine-2,4(1H,3H)-Dione Derivatives Targeting Flavin-Dependent Thymidylate Synthase in Mycobacterium tuberculosis” (Molecules, 2022).
Read-outs that look alike come from different tables or passages of the source.

What was measured:
ThyX = conditions: cited from earlier work
Mtb ThyX [1] = target: T1, Mtb ThyX (Mycobacterium tuberculosis, UniProt P9WG57); assay: M. tuberculosis ThyX NADPH oxidase assay; format: biochemical; conditions: for Inhibition % (Mtb ThyX) / inhibition at 200 µM: 200 μM compound
Mtb ThyX [2] = target: T1, Mtb ThyX; assay: M. tuberculosis ThyX tritium release assay; format: biochemical; conditions: 200 µM compound
viral pathogens = assay: Evaluation on viral pathogens
in vitro = format: cell-based; conditions: human
Experimental: Assays were performed in human peripheral blood mononuclear (PBM) cells via MTS assay using the CellTiter 96® Non-Radioactive Cell Proliferation (Promega) kit. Cytotoxicity was expressed as the concentration of test compounds that inhibited cell growth by 50% (CC50).

[3] = 50 µM inhibitor concentration, read-out: ThyX inhibition at 50 µM of inhibitors
[4] = NADPH oxidase assay, 50 µM FAD, read-out: Inhibition % (Mtb ThyX)
[5] = absence of added FAD, read-out: ThyX inhibition without FAD addition

T1 sequence (P9WG57 whole entry): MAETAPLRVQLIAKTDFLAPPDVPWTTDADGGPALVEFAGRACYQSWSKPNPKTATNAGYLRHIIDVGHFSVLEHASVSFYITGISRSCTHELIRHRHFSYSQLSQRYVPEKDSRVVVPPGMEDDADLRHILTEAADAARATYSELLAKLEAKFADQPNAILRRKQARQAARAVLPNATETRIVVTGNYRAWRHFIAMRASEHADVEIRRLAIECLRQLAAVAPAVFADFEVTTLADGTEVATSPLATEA

## CCOC(=O)[C@@H]1CSC(c2ccccc2)N1C(=O)c1cn(CCCNC(=O)C(F)(F)F)nn1 (stereo partly drawn) [Compound 1]
ThyX; read-out: IC50 against ThyX
  IC50: 57 nM

## O=C1C(O)=C(c2ccco2)C(=O)c2ccccc21 [Compound 2]
ThyX; read-out: inhibitory Ki against ThyX
  Ki: 28 nM

## CCCCCCCC(=O)NCC#Cc1cn(C2CC(O)C(COP(=O)(O)O)O2)c(=O)[nH]c1=O (stereo not drawn) [Compound 3]
ThyX; C5-modified dUMP analogs, read-out: IC50
  IC50: 910 nM

## O=c1[nH]c2c(nc3ccccn32)c(=O)n1-c1ccc(F)cc1 [Compound 9a, 3-(4-Fluorophenyl)pyrido [1,2-e]purine-2,4(1H,3H)-dione]
Mtb ThyX [1]; [3]
  inhibition at 50 µM: 18.4%
Mtb ThyX [1]; NADPH oxidase assay, 50 µM FAD
  Inhibition % (Mtb ThyX): 59.4%
Mtb ThyX [1]; [4]
  inhibition at 200 µM: 59.5%
Mtb ThyX [1]; [5]
  inhibition at 200 µM: 76.1%
Mtb ThyX [1]; calculated for 9a
  IC50: 95000 nM
Mtb ThyX [2]
  inhibition at 200 µM: 59.5%
Viral pathogens
  activity on viral pathogens: some promiscuous activity
Viral pathogens; evaluation on viral pathogens
  toxicity: without toxicity

## Cc1ccc(-n2c(=O)[nH]c3c(nc4ccccn43)c2=O)cc1 [Compound 9d, 3-(p-Tolyl)pyrido [1,2-e]purine-2,4(1H,3H)-dione]
Mtb ThyX [1]; [3]
  inhibition at 50 µM: 2.6%
Mtb ThyX [1]; NADPH oxidase assay, 50 µM FAD
  Inhibition % (Mtb ThyX): 55.4%
Mtb ThyX [1]; [4]
  inhibition at 200 µM: 55%
Mtb ThyX [1]; [5]
  inhibition at 200 µM: 20.4%
Mtb ThyX [2]
  inhibition at 200 µM: 69.2%
Mtb ThyX [2]; 200 µM
  ThyX inhibition, tritium release assay: 77.1%

## O=c1[nH]c2c(nc3ccc(-c4ccccc4)cn32)c(=O)n1-c1ccc(F)cc1 [Compound 23a, 3-(p-Fluorophenyl)-8-phenyl-1H-purino [9,8-a]pyridine-2,4-dione]
Mtb ThyX [1]; [4]
  inhibition at 200 µM: 84.3%
In vitro
  CC50: > 100000 nM

## Cc1cc(N2CCN(C(=O)CCN3C(=O)COc4ccccc43)CC2)nc(C(C)C)n1 [Compound B1-PP146, reference compound]
Mtb ThyX [1]; positive control, value at 50 μM, NADPH oxidase assay, read-out: Inhibition % (Mtb ThyX)
  inhibition at 50 µM: 95.1%
ThyX; read-out: IC50 against ThyX
  IC50: 690 nM
